According to patent US20240182456A1, “2-((4-((S)-2-(4-CHLORO-2-FLUOROPHENYL)-2-METHYLBENZO[D][1,3]DIOXOL-4-YL)PIPERIDIN-1-YL)METHYL)-1-(((S)-OXETAN-2-YL)METHYL)-1H-IMIDAZOLE DERIVATIVES AS ACTIVATORS OF THE GLP1 RECEPTOR FOR THE TREATMENT OF OBESITY” (Novartis AG, priority 2021, published 2024):

Key:
Format in all cases: cell-based
human GLP1R (hGLP1R) [1] = target: T1, human GLP1R (hGLP1R) (Homo sapiens, UniProt P43220); assay: Human GLP1R cAMP agonist assay (GloSensor); conditions: HEK293-SNAP-hGLP1R-GloSensor cells
T1 sequence (P43220 24-463): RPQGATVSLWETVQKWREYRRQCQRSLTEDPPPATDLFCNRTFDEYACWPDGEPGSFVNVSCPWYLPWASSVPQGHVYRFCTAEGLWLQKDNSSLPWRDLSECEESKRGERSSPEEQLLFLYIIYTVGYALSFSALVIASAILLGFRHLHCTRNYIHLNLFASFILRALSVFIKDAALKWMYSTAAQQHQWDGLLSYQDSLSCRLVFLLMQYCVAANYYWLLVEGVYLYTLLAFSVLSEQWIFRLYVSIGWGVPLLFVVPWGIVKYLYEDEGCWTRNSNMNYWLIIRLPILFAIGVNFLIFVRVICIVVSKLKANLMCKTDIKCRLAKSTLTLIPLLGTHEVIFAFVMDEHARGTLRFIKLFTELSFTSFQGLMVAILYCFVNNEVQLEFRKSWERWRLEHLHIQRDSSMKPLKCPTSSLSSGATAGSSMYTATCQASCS
How it was run: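 HEK293 cells stably expressing SNAP-tagged hGLP1R and the GloSensor-22F cAMP luciferase biosensor, pre-loaded 2 h with substrate, then exposed 12 min at rt to compound (30–0.06 μM, 0.5 mM IBMX, 0.1% BSA). Luminescence normalized to 2 nM GLP1(7-36); EC50 and Emax from 4-parameter logistic fit.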

human GLP1R (hGLP1R) [2] = target: T1, human GLP1R (hGLP1R); assay: Human GLP1R β-arrestin recruitment assay (PathHunter); set-up: insert synthesized by GeneArt 93-0164 (cells); 93-0491 (vector bundle); conditions: CHO-hGLP1R-β-arrestin cells; for EC50: mean n=2, read-out: Beta-Arrestin assay EC50 Mean; for Emax: relative to GLP1(7-36), read-out: Beta-Arrestin assay Emax
Protocol: (§1) Compounds 1 to 31 were tested in the following cellular assays that measure the intracellular cAMP concentration, beta-arrestin recruitment and receptor internalization. The cAMP is generated by the activation of GLP1R. The cAMP data obtained is shown in Table 1 (where S.E.M. is included, mean n=3 independent experiments+/−S.E.M). Beta-arrestin is recruited upon activation of GLP1R and the data obtained are shown in Table 2 (mean n=2 independent experiments, +/−S.D). The extent to which the GLP1R is internalized into the cell and away from the plasma membrane following activation is also shown in Table 2 (mean n=2 independent experiments, +/−S.D). EC50 for each assay is defined as the concentration of the compound that leads to half of the maximum response (after baseline correction). Emax is defined as the maximum response observed for the test compound, normalized to the maximum response observed for the endogenous ligand (GLP1(7-36)) to GLP1R.
The extent to which agonists recruited β-arrestin was measured using the PathHunter® β-arrestin assay (DiscoverX). This assay measures binding of β-arrestin to the receptor using an enzyme complementation approach. […] When β-arrestin is recruited to the receptor the enzyme becomes active and generates luminescence in the presence of a chemiluminescent substrate (PathHunter® Detection Kit, DiscoverX cat #93-0001). Luminescence can be measured on a relevant detector. CHO-hGLP1R-β-arrestin cells stably overexpressing hGLP1R with Prolink tag and β-arrestin with EA tag were seeded at 20 μL per well in white 384-well poly-D-Lysine coated plates (Greiner Bio One, cat #781945) in Plating Reagent 2 (DiscoverX, cat #93-0563R2A), and incubated overnight at 37° C., 5% CO2 with humidity. The following day, agonists were prepared at 5 times the final required concentration. To generate triplicate dose response curves, compounds were serially diluted 3-fold in assay buffer (HBSS, 10 mM Hepes and 0.1% BSA), then added to the cell assay plate to a final volume of 25 μL and final top concentrations starting at 30 μM. In the same plate and assay buffer as the tested compounds, were EC100 control wells containing GLP1 (7-36) peptide (Bachem, cat #H-6795) at a final concentration of 1 μM and also EC0 control wells containing no compound. The plate was incubated at 37° C., 5% CO2 with humidity for 2 h after adding the compounds to the cells. Then the detection reagent was prepared (19 parts cell assay buffer, 5 parts substrate reagent 1 and 1 part substrate reagent 2 as per manufacturers recommendations, DiscoverX cat #93-0001), and 12 μL were added per well to the cell assay plate. The plate was incubated for an additional hour in the dark at RT. Luminescence was then measured with an Envision 2104 Multilabel reader with “TRF Light Unit, 337 nm” (Perkin Elmer) using the Ultra-Sensitive protocol setting “384-well US luminescence detector” with the 384-well luminescence aperture, 0.1 sec per well. β-arrestin recruitment was calculated and expressed as percent of the GLP1 (7-36) EC100 control wells: [(sample signal−mean EC0 signal)/(mean EC100 of GLP1 (7-36) signal−mean EC0 signal)]*100 using Microsoft Excel. Curve fitting for EC50 determinations was performed using GraphPad Prism. The 4-parameter logistic model, Hill slope was used: Y=Bottom+(Top−Bottom)/(1+10^((Log EC50−X)*Hill Slope)), where Y is the functional response; X is the compound concentration; bottom is A0 or the minimum value (at 0 dose); top is Ainf or the maximum value (at infinite dose); EC50 is the point of inflection (i.e. the point on the sigmoid shaped curve halfway between A0 and Ainf). The EC50 value was calculated in μM. Emax is the maximal activity detected within the concentration range, derived from the fitted curve relative to GLP1(7-36). […]

human GLP1R = human GLP1R (Homo sapiens, UniProt P43220); assay: Human GLP1R DERET internalization assay; conditions: HEK293-SNAP-hGLP1R-GloSensor cells
human GLP1R, sequence (P43220 24-463): as above
Protocol: as §1
The extent to which agonists internalize the human GLP1R was determined based on an optimized version of a RealTime FRET-based ‘DERET’ (Dissociation Enhanced Resonance Energy Transfer) assay. The technology relies on labeling of the SNAP-tagged GPCR with a SNAP-Lumi-Terbium (donor fluorophore, Cisbio, cat #SSNPTBD). The compounds are incubated with the cells over-expressing the GPCR of interest in the presence of an excess of fluorescein (acceptor fluorophore). When the GPCR is on the cell surface, the donor signal is quenched by the acceptor and the donor/acceptor ratio is low. As the GPCR internalizes, the donor signal is no longer quenched, and the acceptor is no longer excited so the donor/acceptor ratio increases.
HEK293-SNAP-hGLP1R-GloSensor cells (stably overexpressing SNAP-tagged hGLP1R) were seeded overnight in white 384-well poly-D-Lysine coated plates (Greiner Bio One, cat #781945) in regular DMEM growth medium (Gibco, cat #11965-092, 10% heat-inactivated FBS, 10 mM HEPES, 1× penicillin/streptomycin, 0.5 mg/mL geneticin (Gibco, cat #10131-035) and 0.25 mg/mL hygromycin B (Invitrogen, cat #10687010). On the assay day, cell medium was removed and 100 nM SNAP-Lumi-Tb reagent was added in Opti-MEM solution. The cells were incubated at 37° C. for 1 h. Cells were washed using a plate washer in assay buffer [1×HBSS (10× Gibco, cat #14065-056), 20 mM Hepes (Gibco, cat #15630-080), 1 mM CaCl2 (Fluka, cat #21114-1L), 1 mM MgCl2 (Ambion, cat #AM9530G) pH7.4], and 20 μL buffer with 0.1% BSA was added to each well. After leaving cells to equilibrate for ˜15 min at 37° C., 10 μL of Fluorescein (sodium salt, Sigma, cat #F6377, diluted in buffer) was added at 25 μM final concentration. To generate triplicate dose response curves, compounds were serially diluted 3-fold in assay buffer, then added to the cell assay plate to a final volume of 40 μL and final top concentrations starting at 30 μM. In the same plate and assay buffer as the tested compounds, a GLP1 (7-36) peptide (Bachem, cat #H-6795) control curve was included at a final top concentration of 1 μM in order to establish EC100. EC0 wells with buffer only were also included. The plate FRET fluorescence was measured immediately using a Perkin Elmer Envision with LANCE/DELFIA D400 single mirror, excitation filter X320, and emission filters M615_203 (donor emission) and M515 (acceptor emission), and then measured every 30 min. […] Plates were kept at 37° C. between reads. Data was expressed as the ratio of donor/acceptor emissions using Microsoft Excel and plotted in GraphPad Prism. In order to determine EC50 and Emax for internalization, data was calculated and expressed as percent of the GLP1 (7-36) EC100 control wells: [(sample signal−mean EC0 signal)/(mean EC100 of GLP1 (7-36) signal−mean EC0 signal)]*100 using Microsoft Excel. Curve fitting for EC50 determinations was performed using GraphPad Prism. The 4-parameter logistic model, Hill slope was used:
Y=Bottom+(Top−Bottom)/(1+10^((Log EC50−X)*Hill Slope)), […]

SMILES	Emax (human GLP1R (hGLP1R) [1]; cAMP, normalized to GLP1(7-36) maximum response, read-out: Emax mean)	EC50 (human GLP1R (hGLP1R) [1]; intracellular cAMP, mean n=3 where SEM is given)	EC50 (human GLP1R (hGLP1R) [2])	Emax (human GLP1R (hGLP1R) [2])	EC50 (human GLP1R; mean n=2)	Emax (human GLP1R; relative to GLP1(7-36))
Cc1nc(CN2CCC(c3cccc4c3O[C@@](C)(c3ccc(Cl)cc3F)O4)CC2)n(C[C@@H]2CCO2)c1C(=O)O [Compound C-3, 2-((4-((S)-2-(4-chloro-2-fluorophenyl)-2-methylbenzo[d][1,3]dioxol-4-yl)piperidin-1-yl)methyl)-4-methyl-1-(((S)-oxetan-2-yl)methyl)-1H-imidazole-5-carboxylic acid]	108%	1.65 nM	> 30000 nM	0%		
C[C@]1(c2ccc(Cl)cc2F)Oc2cccc(C3CCN(Cc4nc5ccc(C(=O)O)cc5n4C[C@@H]4CCO4)CC3)c2O1 [Reference compound, 2-((4-((S)-2-(4-chloro-2-fluorophenyl)-2-methylbenzo[d][1,3]dioxol-4-yl)piperidin-1-yl)methyl)-1-(((S)-oxetan-2-yl)methyl)-1H-benzo[d]imidazole-6-carboxylic acid, reference compound]			123 nM	27%	15 nM	87%
